Reference: BindingDB's records for doi:10.1021/acsmedchemlett.7b00249 (Vanderbilt University School of Medicine, 2017)

Target: Metabotropic glutamate receptor 5 (Rattus norvegicus, UniProt P31424)
Experiment: Positive allosteric modulation of rat mGlu5 receptor expressed in HEK293A cells assessed as increase in glutamate induced-calcium mobilization preincubated for 2.3 mins followed by glutamate addition measured for 1.9 mins by Fluo-4 AM dye based fluorescence assay

Metabotropic glutamate receptor 5, sequence (P31424 whole entry): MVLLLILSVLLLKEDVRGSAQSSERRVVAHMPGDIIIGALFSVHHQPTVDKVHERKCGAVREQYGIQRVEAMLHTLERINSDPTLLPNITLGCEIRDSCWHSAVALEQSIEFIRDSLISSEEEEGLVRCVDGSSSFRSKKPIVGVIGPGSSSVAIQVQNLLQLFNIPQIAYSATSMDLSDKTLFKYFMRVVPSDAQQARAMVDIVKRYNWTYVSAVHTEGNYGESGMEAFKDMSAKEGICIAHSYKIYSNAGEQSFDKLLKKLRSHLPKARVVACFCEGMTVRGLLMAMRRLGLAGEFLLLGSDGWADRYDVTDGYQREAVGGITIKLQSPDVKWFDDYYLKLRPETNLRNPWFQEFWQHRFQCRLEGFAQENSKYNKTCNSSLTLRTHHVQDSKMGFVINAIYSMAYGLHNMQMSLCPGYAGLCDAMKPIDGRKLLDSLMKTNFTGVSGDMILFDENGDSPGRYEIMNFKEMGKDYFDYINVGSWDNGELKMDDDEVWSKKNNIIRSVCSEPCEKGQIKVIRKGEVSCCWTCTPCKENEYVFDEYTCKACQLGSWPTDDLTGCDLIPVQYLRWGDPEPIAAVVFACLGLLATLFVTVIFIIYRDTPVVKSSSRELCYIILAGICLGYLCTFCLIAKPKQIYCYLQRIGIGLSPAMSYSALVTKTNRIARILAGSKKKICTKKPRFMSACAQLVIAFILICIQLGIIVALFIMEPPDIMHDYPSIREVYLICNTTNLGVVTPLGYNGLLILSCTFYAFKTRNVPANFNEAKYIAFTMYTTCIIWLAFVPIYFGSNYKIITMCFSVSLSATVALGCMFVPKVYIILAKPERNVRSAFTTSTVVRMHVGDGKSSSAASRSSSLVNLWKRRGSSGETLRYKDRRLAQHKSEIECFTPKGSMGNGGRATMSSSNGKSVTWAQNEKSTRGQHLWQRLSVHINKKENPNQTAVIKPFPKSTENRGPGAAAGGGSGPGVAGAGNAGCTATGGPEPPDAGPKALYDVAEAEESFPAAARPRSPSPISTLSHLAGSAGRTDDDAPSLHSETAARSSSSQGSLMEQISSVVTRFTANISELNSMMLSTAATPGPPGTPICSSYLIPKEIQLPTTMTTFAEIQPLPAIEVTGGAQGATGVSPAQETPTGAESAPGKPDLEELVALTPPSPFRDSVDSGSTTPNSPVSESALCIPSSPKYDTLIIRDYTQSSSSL

Q: For `O=c1nc(OCCOc2ccccc2)ccn1-c1ccc(F)c(F)c1`, which EC50 is on record?
A: Its EC50 is 398 nM.
